Legend:
[1] = biological target: NAMPT (human, recombinant, C-terminally His-tagged) (Homo sapiens, UniProt P43490); assay: Time-Resolved Fluorescence Resonance Energy Transfer (TR-FRET) Binding Assay of NAMPT; conditions: without substrates; 6.8 nM NAMPT, 200 nM probe, 3 hours equilibration
Summary of the method: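 Read-out is the time-resolved FRET ratio Em520/Em495 (excitation 337 nm) between a terbium anti-His antibody (1 nM) on the enzyme and an Oregon Green 488-labelled nicotinamide-competitive inhibitor probe (200 nM). Enzyme was 6.8 nM, DMSO 2%, pH 7.5 HEPES buffer; 3 h room-temperature equilibration preceded reading.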

PC3 cells = assay: NAMPT Cell Proliferation Assay; type: cell-based; conditions: Homo sapiens, PC-3, 120 h, 5 days incubation, cell viability by Cell Titer Glo
Summary of the method: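 PC3 cells were plated at 500 cells/well in RPMI with 10% heat-inactivated FBS, left to attach overnight, then given compounds in 10-fold dilutions from 10 μM to 1×10^−5 μM. After 5 days at 37° C and 5% CO2, viability was read by luminescence and IC50s came from sigmoidal fits of percent inhibition.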

NAMPT = NAMPT (Homo sapiens, UniProt P43490); assay: TR-FRET Binding Assay of NAMPT with PRPP; conditions: with 200 μM PRPP and 2.5 mM ATP; 2 nM NAMPT, 2 nM probe, 16 hours equilibration
Summary of the method: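 NAMPT 2 nM + probe 2 nM + Tb-anti-His Ab 1 nM; PRPP 200 μM, ATP 2.5 mM, DMSO 2%; 16 h equilibration before TR-FRET read.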

NAMPT, sequence (P43490 whole entry): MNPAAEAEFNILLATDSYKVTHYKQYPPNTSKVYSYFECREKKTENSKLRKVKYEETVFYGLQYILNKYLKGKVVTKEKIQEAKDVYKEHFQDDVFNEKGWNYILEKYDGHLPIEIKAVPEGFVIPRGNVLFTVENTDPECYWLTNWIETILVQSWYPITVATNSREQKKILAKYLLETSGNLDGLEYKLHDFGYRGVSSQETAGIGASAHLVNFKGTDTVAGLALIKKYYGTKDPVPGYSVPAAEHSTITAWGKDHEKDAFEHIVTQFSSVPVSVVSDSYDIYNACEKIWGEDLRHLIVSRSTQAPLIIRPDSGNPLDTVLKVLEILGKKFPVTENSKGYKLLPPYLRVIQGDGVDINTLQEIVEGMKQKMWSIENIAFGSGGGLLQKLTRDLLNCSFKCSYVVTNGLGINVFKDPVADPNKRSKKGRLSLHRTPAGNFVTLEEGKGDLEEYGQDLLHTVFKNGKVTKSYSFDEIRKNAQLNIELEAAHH
NAMPT (human, recombinant, C-terminally His-tagged), sequence (P43490 whole entry): as above

IC50 [1] [nM]	IC50 (PC3 cells) [nM]	IC50 (NAMPT) [nM]	SMILES
392	63.9	0.436	O=C(CC1CCCC1)Nc1ccc(C(=O)NCc2ccn3ccnc3c2)cc1 [Example 117, 4-[(cyclopentylacetyl)amino]-N-(imidazo[1,2-a]pyridin-7-ylmethyl)benzamide]
35.2	18.2	0.234	O=C(CC1CCCC1)Nc1ccc(NC(=O)NCc2ccn3ccnc3c2)cc1 [Example 118, 2-cyclopentyl-N-(4-{[(imidazo[1,2-a]pyridin-7-ylmethyl)carbamoyl]amino}phenyl)acetamide]
942	146	0.783	CC(C)Cn1cc(-c2ccc(C(=O)NCc3ccc4nccn4c3)cc2)cn1 [Example 119, N-(imidazo[1,2-a]pyridin-6-ylmethyl)-4-[1-(2-methylpropyl)-1H-pyrazol-4-yl]benzamide]
73.9	90.8	0.367	CC(C)Cn1cc(-c2ccc(C(=O)NCc3ccc4nccn4c3)o2)cn1 [Example 120, N-(imidazo[1,2-a]pyridin-6-ylmethyl)-5-[1-(2-methylpropyl)-1H-pyrazol-4-yl]furan-2-carboxamide]
486	3.91	0.234	COCCC(=O)N(CC1CCCO1)c1ncc(C(=O)NCc2ccn3ccnc3c2)s1 (stereo not drawn) [Example 121, N-(imidazo[1,2-a]pyridin-7-ylmethyl)-2-[(3-methoxypropanoyl)(tetrahydrofuran-2-ylmethyl)amino]-1,3-thiazole-5-carboxamide]
255	172	4.76	O=C(NCc1ccc2nccn2c1)c1cnc(N2CC(c3ccccc3)OC2=O)s1 (stereo not drawn) [Example 122, N-(imidazo[1,2-a]pyridin-6-ylmethyl)-2-(2-oxo-5-phenyl-1,3-oxazolidin-3-yl)-1,3-thiazole-5-carboxamide]
133	7.43	2.57	Cc1ncc(CC(=O)N(CC2CCCO2)c2ncc(C(=O)NCc3ccc4nccn4c3)s2)s1 (stereo not drawn) [Example 123, N-(imidazo[1,2-a]pyridin-6-ylmethyl)-2-{[(2-methyl-1,3-thiazol-5-yl)acetyl](tetrahydrofuran-2-ylmethyl)amino}-1,3-thiazole-5-carboxamide]
1100	20.8	2.12	Cc1nc(CC(=O)N(CC2CCCO2)c2ncc(C(=O)NCc3ccc4nccn4c3)s2)cs1 (stereo not drawn) [Example 124, N-(imidazo[1,2-a]pyridin-6-ylmethyl)-2-{[(2-methyl-1,3-thiazol-4-yl)acetyl](tetrahydrofuran-2-ylmethyl)amino}-1,3-thiazole-5-carboxamide]
547	23	2.09	Cc1cc(CC(=O)N(CC2CCCO2)c2ncc(C(=O)NCc3ccc4nccn4c3)s2)on1 (stereo not drawn) [Example 125, N-(imidazo[1,2-a]pyridin-6-ylmethyl)-2-{[(3-methyl-1,2-oxazol-5-yl)acetyl](tetrahydrofuran-2-ylmethyl)amino}-1,3-thiazole-5-carboxamide]
102	3.96	0.963	O=C(NCc1ccc2nccn2c1)c1cnc(N(CC2CCCO2)C(=O)CCc2cc(Cl)no2)s1 (stereo not drawn) [Example 126, 2-{[3-(3-chloro-1,2-oxazol-5-yl)propanoyl](tetrahydrofuran-2-ylmethyl)amino}-N-(imidazo[1,2-a]pyridin-6-ylmethyl)-1,3-thiazole-5-carboxamide]
52.2	2.34	0.522	COc1cc(CCC(=O)N(CC2CCCO2)c2ncc(C(=O)NCc3ccc4nccn4c3)s2)on1 (stereo not drawn) [Example 127, N-(imidazo[1,2-a]pyridin-6-ylmethyl)-2-{[3-(3-methoxy-1,2-oxazol-5-yl)propanoyl](tetrahydrofuran-2-ylmethyl)amino}-1,3-thiazole-5-carboxamide]
30.7	2.21	0.873	Cc1noc(C)c1CC(=O)N(CC1CCCO1)c1ncc(C(=O)NCc2ccc3nccn3c2)s1 (stereo not drawn) [Example 128, 2-{[(3,5-dimethyl-1,2-oxazol-4-yl)acetyl](tetrahydrofuran-2-ylmethyl)amino}-N-(imidazo[1,2-a]pyridin-6-ylmethyl)-1,3-thiazole-5-carboxamide]
11.6	2.74	0.634	Cc1noc(C)c1CCC(=O)N(CC1CCCO1)c1ncc(C(=O)NCc2ccc3nccn3c2)s1 (stereo not drawn) [Example 129, 2-{[3-(3,5-dimethyl-1,2-oxazol-4-yl)propanoyl](tetrahydrofuran-2-ylmethyl)amino}-N-(imidazo[1,2-a]pyridin-6-ylmethyl)-1,3-thiazole-5-carboxamide]
53.2	6.55	0.981	Cn1cc(CCC(=O)N(CC2CCCO2)c2ncc(C(=O)NCc3ccc4nccn4c3)s2)cn1 (stereo not drawn) [Example 130, N-(imidazo[1,2-a]pyridin-6-ylmethyl)-2-{[3-(1-methyl-1H-pyrazol-4-yl)propanoyl](tetrahydrofuran-2-ylmethyl)amino}-1,3-thiazole-5-carboxamide]
15.2	2.17	1.67	Cc1ncsc1CCC(=O)N(CC1CCCO1)c1ncc(C(=O)NCc2ccc3nccn3c2)s1 (stereo not drawn) [Example 131, N-(imidazo[1,2-a]pyridin-6-ylmethyl)-2-{[3-(4-methyl-1,3-thiazol-5-yl)propanoyl](tetrahydrofuran-2-ylmethyl)amino}-1,3-thiazole-5-carboxamide]
155	523	13.3	O=C(NCc1ccc2nccn2c1)c1cnc(N(CC2CCCO2)C(=O)Cc2nnn[nH]2)s1 (stereo not drawn) [Example 132, N-(imidazo[1,2-a]pyridin-6-ylmethyl)-2-[(tetrahydrofuran-2-ylmethyl)(1H-tetrazol-5-ylacetyl)amino]-1,3-thiazole-5-carboxamide]
67	2.16	0.709	O=C(NCc1ccc2nccn2c1)c1cnc(N(CC2CCCO2)C(=O)CCc2ccno2)s1 (stereo not drawn) [Example 133, N-(imidazo[1,2-a]pyridin-6-ylmethyl)-2-{[3-(1,2-oxazol-5-yl)propanoyl](tetrahydrofuran-2-ylmethyl)amino}-1,3-thiazole-5-carboxamide]
303	6.54	1.49	O=C(NCc1ccc2nccn2c1)c1cnc(N(CC2CCCO2)C(=O)Cc2ccon2)s1 (stereo not drawn) [Example 134, N-(imidazo[1,2-a]pyridin-6-ylmethyl)-2-[(1,2-oxazol-3-ylacetyl)(tetrahydrofuran-2-ylmethyl)amino]-1,3-thiazole-5-carboxamide]
73.8	6.36	1.27	O=C(NCc1ccc2nccn2c1)c1cnc(N(CC2CCCO2)C(=O)CCc2cnoc2)s1 (stereo not drawn) [Example 135, N-(imidazo[1,2-a]pyridin-6-ylmethyl)-2-{[3-(1,2-oxazol-4-yl)propanoyl](tetrahydrofuran-2-ylmethyl)amino}-1,3-thiazole-5-carboxamide]
72.7	3.05	0.512	O=C(NCc1ccc2nccn2c1)c1cnc(N(CC2CCCO2)C(=O)CCc2nccs2)s1 (stereo not drawn) [Example 136, N-(imidazo[1,2-a]pyridin-6-ylmethyl)-2-{(tetrahydrofuran-2-ylmethyl)[3-(1,3-thiazol-2-yl)propanoyl]amino}-1,3-thiazole-5-carboxamide]
315	225	7.21	CC(C)CC(=O)Nc1ncc(C(=O)NCc2ccc3nccn3c2)s1 [Example 137, N-(imidazo[1,2-a]pyridin-6-ylmethyl)-2-[(3-methylbutanoyl)amino]-1,3-thiazole-5-carboxamide]
80.7	3.83	0.424	COCCNC(=O)N(CC1CCCO1)c1ncc(C(=O)NCc2ccn3ccnc3c2)s1 (stereo not drawn) [Example 138, N-(imidazo[1,2-a]pyridin-7-ylmethyl)-2-{[(2-methoxyethyl)carbamoyl](tetrahydrofuran-2-ylmethyl)amino}-1,3-thiazole-5-carboxamide]
582	12.2	0.173	COCCC(=O)N(CC1CCOC1)c1ncc(C(=O)NCc2ccc3nccn3c2)s1 (stereo not drawn) [Example 139, N-(imidazo[1,2-a]pyridin-6-ylmethyl)-2-[(3-methoxypropanoyl)(tetrahydrofuran-3-ylmethyl)amino]-1,3-thiazole-5-carboxamide]
1340	65.5	0.927	O=C(NCc1ccc2nccn2c1)c1cnc(N(CC2CCOC2)C(=O)C2CCOCC2)s1 (stereo not drawn) [Example 140, N-(imidazo[1,2-a]pyridin-6-ylmethyl)-2-[(tetrahydrofuran-3-ylmethyl)(tetrahydro-2H-pyran-4-ylcarbonyl)amino]-1,3-thiazole-5-carboxamide]
2110	77.8	0.757	COCCNC(=O)N(CC1CCOC1)c1ncc(C(=O)NCc2ccc3nccn3c2)s1 (stereo not drawn) [Example 141, N-(imidazo[1,2-a]pyridin-6-ylmethyl)-2-{[(2-methoxyethyl)carbamoyl](tetrahydrofuran-3-ylmethyl)amino}-1,3-thiazole-5-carboxamide]

— US9187472B2 (AbbVie Inc., priority 2012, dated 2015)
